Experimental data: patent US20260243757A1, “IMMUNE CELL-DERIVED SECRETOME” (Agency for Science, Technology and Research, priority 2023, published 2026)

Assays:
D341 = assay: Drug treatment in secretome versus standard media (FIG. 41); type: cell-based, human
[1] = system: CHLA01 (primary tumour cells); assay: as above; type: cell-based, human; conditions: CHLA01 neurospheres
[2] = system: CHLA01R (recurrent/relapse tumour cells); assay: as above; type: cell-based, human; conditions: CHLA01R neurospheres
[3] = system: ATRT cell lines and medulloblastoma; assay: Drug efficacy in the presence of the secretome; type: cell-based, human; conditions: during early tumourigenesis
Medulloblastoma = assay: Ispinesib in PDX brain tumors implanted using secretome+Tumor (Batch 94B); type: in vivo, mice; conditions: 10 mg/kg intraperitoneally every four days for three doses, repeated on day 21
Method: (§1) Rag2/Severe combined immune deficiency (SCID) mice were bred and housed in a pathogen-free facility. Surgical implantation of tumour cells ([…]) into mouse cerebrum was performed using the method of the present disclosure previously described by studies in the art. The general recommendations in ARRIVE guidelines 2.0 (https://arriveguidelines.org/) were followed in the study of the present disclosure. The sample size of the present disclosure was small. […] The animals were randomly assigned into treatment versus control groups to have approximately equal number of animals per group. […] Treatment was delivered to animals assigned in treatment group, cage-by-cage. Blinding was not possible as the inventor of the present disclosure have a small team of 2-3 individuals working with the animals and the inventor of the present disclosure are all involved at various stages and day-to-day processes of the animal work. Separate batches comprising of various litters were used, minimizing bias from the same litter effect. The inventor of the present disclosure has previously published using this animal protocol and is not otherwise deposited in any repository/registry.
OTSSP167 was dissolved in a solution of dimethyl sulfoxide, Kolliphor® EL and sterile water. A daily dose of 5 mg/kg of OTSSP167 was administered to the mice via intraperitoneal injection for 14 days. […]

CHLA-02 [4] = assay: Proliferation assay (standard growth media), OTSSP167 dose-response; type: cell-based; conditions: Homo sapiens, 96 h, Day 4
Method: (§2) Tumour cells were seeded in quadruplicates for each treatment condition (FIG. 5B). OTSSP167 was added. Cell proliferation was determined, and optical density (OD) was measured using a fluorescence/luminescence detection System.

BT-37 [5] = assay: as above; type: cell-based, human
Method: as §2

six ATRT cell lines = assay: Proliferation assay (standard growth media), panel; type: cell-based, human; conditions: over 13 days
Method: as §2

CHLA-04 = assay: Proliferation assay (standard growth media), OTSSP167; type: cell-based, human; conditions: MELK-low CHLA-04; 50 nM dose
Method: as §2

BT-37 [6] = assay: Flow cytometry for apoptotic cell death (Annexin V/PI); type: cell-based, human; conditions: BT-37 cells; 48 hours of OTSSP167 treatment
Method: (§3) Tumour cells were treated in culture with OTSSP167 to detect apoptosis (FIG. 5C). At each timepoint, cells were harvested and stained with Annexin V-FITC and PI. Stained cells were then analysed by flow cytometry at the excitation wavelength of 488 nm (FITC) and 595 nM (PI). Cultured cells were treated with OTSSP167 to study the cell cycle changes. Cells were harvested and fixed with absolute ethanol. Fixed cells were stained with PI/RNase A master mix (PI and RNase A) prior to analysis by flow cytometry.

CHLA-02 [7] = assay: as above; type: cell-based, human; conditions: CHLA-02 cells; 48 hours of OTSSP167 treatment
Method: as §3

CHLA-02 and BT-37 cells = assay: Immunoblotting after OTSSP167 treatment; type: cell-based, human
Method: Cells were lysed in RIPA buffer with 1% Protease and Phosphatase Inhibitor Cocktail on ice. Protein samples were first denatured with 5% β-mercaptoethanol in Laemmli's buffer at 95° C. Protein concentration was determined using Protein Assay Kit. Protein lysates were resolved, and equal amounts of denatured proteins was run on NuPAGE 4-12% Bis-Tris Protein Gel and transferred onto PVDF membrane. Membrane blots for phosphorylated Histone H2A.X were blocked with 5% Bovine serum albumin (BSA) in 1× TBS-T ([…] Tris-buffered Saline, 0.1 % Tween® 20). Other membrane blots were blocked with 5% skim milk in 1× TBS-T for 1 hour and incubated with its respective primary antibodies at 4° C. overnight. Protein bands were visualized using an imaging system with Western blotting substrate. Primary antibodies used were: Eg5, cleaved PARP, β-actin, cleaved caspase-3, and p53, p-Histone H2A.X, p21. Secondary antibodies included: anti-rabbit IgG HRP-linked and anti-mouse IgG HRP linked.

[8] = system: autopsy-derived patient-derived orthotopic xenograft (PDOX) Model of ATRT; assay: Orthotopic xenograft survival, intraperitoneal OTSSP167; type: in vivo, mice; conditions: 5 mg/kg daily intraperitoneal for 14 days; p=0.032, Log-rank test
Method: as §1
OTSSP167 was dissolved in a solution of dimethyl sulfoxide, Kolliphor® EL and sterile water. […]
Mice were carefully monitored daily their fitness using a clinical staging system we previously published. […]

CHLA-02, BT-37 = assay: Cell proliferation assay (secretome-based or growth-media-based), DMSO or OTSSP167; set-up: species or system human
Method: Human myeloid-derived cells (U937) were seeded at a fixed density and stimulated with PMA and IL-4 for 48 h to obtain CD 11b+ cells. Stimulated human myeloid-derived macrophages were harvested without trypsinization (Biological replicate 1 in FIG. 4D and FIG. 5E) and with trypsinization (Biological replicate 2 and 3 in FIG. 4D and FIG. 5E). These cells highly express CD11b+ with or without trypsinization (FIG. 14A). CD11b+ cells were washed twice with PBS. CD11b+ cells were plated at a fixed density in 1 ml of pure RPMI (serum-free) to obtain CD11b+ supernatants (Condition 2). CD11b+ cells (same density) were co-incubated with tumour cells at 1:1 ratio in pure RPMI (serum-free) to obtain co-culture supernatant (Condition 3). Tumour cells were seeded at the same density to obtain tumour supernatant (Condition 1). […]
Tumour cells were suspended in 3 types of cell-free supernatants: CD 11b+ supernatant, tumour supernatant, and CD11b+-tumour co-culture supernatant. […] Cell viability was determined by a kit at 4 h, 24 h, 48 h, 72 h time points, over a period of 3 days. Optical density (OD) was measured using a fluorescence/luminescence detection system (FIGS. 4A, 4B, FIG. 18). All other absorbance (OD) was measured at 450 nm using a multilabel plate reader. Absorbance of wells with serum-free pure RPMI was used as blank.

BT-37 [9] = assay: Apoptosis assay of OTSSP167-treated cells, standard growth media versus six-factor secretome; type: cell-based, human
Method: (§4) Tumour cells were cultured in either standard growth media or six-factor-secretome for […] different duration −4 h, 24 h, 48 h and 96 h (FIG. 5G). To study the killing effect of OTSSP167, tumour cells cultured in each condition (standard growth media or six-factor-secretome) were treated with OTSSP167. Cells were harvested at respective timepoints and stained with FITC-Annexin V and/or Propidium lodide. Stained cells were then analysed by flow cytometry at the excitation wavelength of 488 nm (FITC) and 595 nM (PI). A total of 10,000 cells were analysed per measurement.

CHLA-02 [10] = assay: as above; type: cell-based, human; conditions: FIG. 37
Method: as §4

Daoy = assay: Drug treatment in secretome versus standard media (FIG. 41); type: cell-based, human
CHLA-02 [11] = assay: Photomicrographs of growth morphology in T75 flasks; type: cell-based, human; conditions: OTSSP167 in secretome versus standard growth media
another ATRT mouse model = conditions: cited from earlier work

**Q.** With `Cc1ccc(C(=O)N(CCCN)[C@@H](c2nc3cc(Cl)ccc3c(=O)n2Cc2ccccc2)C(C)C)cc1` [Ispinesib, (R)-N-(3-aminopropyl)-N-(1-(3-benzyl-7-chloro-4-oxo-3,4-dihydroquinazolin-2-yl)-2-methylpropyl)-4-methylbenzamide] as the compound, how does the “cell death/survival with drug in secretome compared to standard media” value (from here on “cell death/survival … compared to standard media”) (D341) read?
**A.** The value was “survive better”.

**Q.** And the “cell death/survival … compared to standard media” value [1]?
**A.** Its value is “survive better”.

**Q.** And the “cell death/survival … compared to standard media” value [2]?
**A.** The value was “survive better”.

**Q.** And the “drug efficacy in the presence of the secretome” value [3]?
**A.** Its value is “reduced”.

**Q.** And the “efficacy in PDX brain tumors implanted using secretome+Tumor” value (Medulloblastoma)?
**A.** Its value is “effective”.

**Q.** For `CC(=O)c1cnc2ccc(-c3cc(Cl)c(O)c(Cl)c3)nc2c1N[C@H]1CC[C@H](CN(C)C)CC1` [OTSSP167, 1-(6-(3,5-dichloro-4-hydroxyphenyl)-4-(((1r,4r)-4-((dimethylamino)methyl)cyclohexyl)amino)-1,5-naphthyridin-3-yl)ethenone], which IC50 (CHLA-02 [4]) is on record?
**A.** Its IC50 is 20.8 nM.

**Q.** And the IC50 (BT-37 [5]; Homo sapiens, 96 h, BT-37, Day 4)?
**A.** Its IC50 is 70.4 nM.

**Q.** What about the “effect against tumour cells” value (BT-37 [5]; MELK-high BT-37 cells, 5 nM dose) of the same compound?
**A.** Its value is “effective”.

**Q.** And the “efficacy across panel of ATRT cell lines (dose-response)” value (six ATRT cell lines)?
**A.** Its value is “efficacious across a panel of six ATRT cell lines in nanomolar ranges”.

**Q.** And the “effect against tumour cells” value (CHLA-04)?
**A.** The value was “effective”.

**Q.** And the “early and late apoptotic cells” value (BT-37 [6])?
**A.** Its value is 58.1%.

**Q.** And the “early and late apoptotic cells” value (CHLA-02 [7])?
**A.** The value was 50.7%.

**Q.** And the “p-Histone H2A.X (DNA damage)” value (CHLA-02 and BT-37 cells; 24 h, 48 h and 72 h treatment)?
**A.** The value was “increased”.

**Q.** What about the “c-PARP (intrinsic apoptosis pathway)” value (CHLA-02 and BT-37 cells; OTSSP167 treatment) of the same compound?
**A.** The value was “increased”.

**Q.** What about the p53 (CHLA-02 and BT-37 cells; OTSSP167 treatment) of the same compound?
**A.** The p53 was “increased”.

**Q.** What about the “overall survival of animals” value [8] of the same compound?
**A.** The value was “significantly improved”.

**Q.** And the “OTSSP167 efficacy in six-factor-secretome compared to standard growth media (tumour proliferation)” value (CHLA-02, BT-37)?
**A.** The value was “decreased”.

**Q.** What about the “cell death with OTSSP167 in secretome compared to standard media conditions” value (BT-37 [9]; BT-37, FIG. 38) of the same compound?
**A.** The value was “more cell death”.

**Q.** What about the “cell death of OTSSP167-treated BT-37 versus CHLA-02 in secretome” value (BT-37 [9]; in secretome after 24-48 h) of the same compound?
**A.** Its value is “more cell death than CHLA-02 cells”.

**Q.** What about the “cell death with OTSSP167 in secretome compared to standard media conditions” value (CHLA-02 [10]) of the same compound?
**A.** The value was “more cell death”.

**Q.** And the “cell death/survival … compared to standard media” value (Daoy)?
**A.** Its value is “higher cell death”.

**Q.** What about the “cell death/survival … compared to standard media” value (D341) of the same compound?
**A.** Its value is “higher cell death”.

**Q.** What about the “cell death/survival … compared to standard media” value [1] of the same compound?
**A.** The value was “survive better”.

**Q.** What about the “cell death/survival … compared to standard media” value [2] of the same compound?
**A.** The value was “survive better”.

**Q.** And the “drug efficacy in the presence of the secretome” value [3]?
**A.** Its value is “reduced”.

**Q.** And the “growth morphology of tumour cells treated with OTSSP167 in secretome” value (CHLA-02 [11])?
**A.** The value was “maintained their interlacing, web-like architecture”.

**Q.** And the blood-brain-barrier penetration (another ATRT mouse model)?
**A.** The blood-brain-barrier penetration was “penetrate blood-brain-barrier”.
